Test results as given in ChEMBL document CHEMBL1201862, “PubChem BioAssay data set” (2004).
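These data come from cells grown in 96-well plates and exposed to compound for 48 hours at five concentrations. GI50 = concentration required for 50% inhibition of growth.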 Active and inactive are the calls of the source. Rule as the data show it: active = GI50 up to about 1.1 µM and inactive = higher.

Experiments:
Experiment in all cases: inhibition of tumour cell growth, NCI panel, 48 h
CCRF-CEM = system: CCRF-CEM
UO-31 = system: UO-31
K562 = system: K562
MOLT-4 = system: MOLT-4
LOX IMVI = system: LOX IMVI
NCI/ADR-RES = system: NCI/ADR-RES
MDA-MB-435 = system: MDA-MB-435
HL-60 = system: HL-60
OVCAR-8 = system: OVCAR-8
SF-268 = system: SF-268
NCI-H23 = system: NCI-H23
UACC-257 = system: UACC-257
A549 = system: A549
OVCAR-3 = system: OVCAR-3
SK-OV-3 = system: SK-OV-3
TK-10 = system: TK-10
BT-549 = system: BT-549
RXF 393 = system: RXF 393
SK-MEL-5 = system: SK-MEL-5

Compound | GI50 (CCRF-CEM) | GI50 (UO-31) | GI50 (K562) | GI50 (MOLT-4) | GI50 (LOX IMVI) | GI50 (NCI/ADR-RES) | GI50 (MDA-MB-435) | GI50 (HL-60) | GI50 (OVCAR-8) | GI50 (SF-268) | GI50 (NCI-H23) | GI50 (UACC-257) | GI50 (A549) | GI50 (OVCAR-3) | GI50 (SK-OV-3) | GI50 (TK-10) | GI50 (BT-549) | GI50 (RXF 393) | GI50 (SK-MEL-5)
Cc1nc(Cl)nc(Cl)c1C | > 100 µM (inactive) | > 100 µM (inactive) | > 100 µM (inactive) | > 100 µM (inactive) | > 100 µM (inactive) | > 100 µM (inactive) | > 100 µM (inactive) | > 100 µM (inactive) | > 100 µM (inactive) | > 100 µM (inactive) | > 100 µM (inactive) | > 100 µM (inactive) | > 100 µM (inactive) | > 100 µM (inactive) | > 100 µM (inactive) | > 100 µM (inactive) | 75.7 µM (inactive) | > 100 µM (inactive) | > 100 µM (inactive)
NC(N)=NCCC[C@H](N)C(=O)NCC(=O)N[C@@H](CC(=O)O)c1ncc(NC(=O)C(F)(F)F)o1 | > 25 µM (inactive) | > 25 µM (inactive) | > 25 µM (inactive) | > 25 µM (inactive) | > 25 µM (inactive) | > 25 µM (inactive) | > 25 µM (inactive) | > 25 µM (inactive) | > 25 µM (inactive) | > 25 µM (inactive) | > 25 µM (inactive) | > 25 µM (inactive) | > 25 µM (inactive) | > 25 µM (inactive) | > 25 µM (inactive) | > 25 µM (inactive) | > 25 µM (inactive) | > 25 µM (inactive) | > 25 µM (inactive)
O=C(NC1=C(Cl)C(=O)c2ccccc2C1=O)C(=O)C(C(=O)c1ccc2ccccc2c1)C1OC(=O)c2ccccc21 (stereo not drawn) | 2.87 µM (inactive) | 13.2 µM (inactive) | 3.55 µM (inactive) | 2.06 µM (inactive) | 1.08 µM (active) | – | 1.7 µM (inactive) | 2.49 µM (inactive) | 4.61 µM (inactive) | 4.53 µM (inactive) | 2.9 µM (inactive) | 2.19 µM (inactive) | 4.72 µM (inactive) | 2.7 µM (inactive) | 13.2 µM (inactive) | 25.6 µM (inactive) | 3.48 µM (inactive) | 4.49 µM (inactive) | 0.564 µM (active)
CO[C@H]1[C@@H](O)[C@@H](C)O[C@@H](O[C@H]2CC[C@@]3(C)[C@H](CC[C@@H]4[C@@H]3CC[C@]3(C)[C@@H](C5=CC(=O)OC5)[C@@H](OC(C)=O)C[C@]43O)C2)[C@@H]1O [NERITALOSIDE] | 0.029 µM (active) | 0.0177 µM (active) | 0.141 µM (active) | 0.0211 µM (active) | 0.0708 µM (active) | 0.0486 µM (active) | 0.124 µM (active) | 0.0566 µM (active) | 0.0723 µM (active) | 0.024 µM (active) | 0.027 µM (active) | 0.1 µM (active) | 0.0104 µM (active) | 0.0229 µM (active) | 0.0807 µM (active) | 0.0164 µM (active) | 0.0331 µM (active) | 0.0164 µM (active) | 0.0405 µM (active)
C[S+](C)CC(=O)c1ccc2c(c1)Sc1ccccc1O2 | 5.27 µM (inactive) | 3.08 µM (inactive) | 3.21 µM (inactive) | 3.29 µM (inactive) | 3.18 µM (inactive) | 6.55 µM (inactive) | 0.923 µM (active) | 1.61 µM (inactive) | 3.39 µM (inactive) | 5.43 µM (inactive) | 3.49 µM (inactive) | 4.72 µM (inactive) | 5.68 µM (inactive) | 2.4 µM (inactive) | 6.04 µM (inactive) | 5.38 µM (inactive) | 2.18 µM (inactive) | 3.78 µM (inactive) | 1.08 µM (active)
Cc1ccc(C2(c3ccc(C)cc3)SC(=C(C#N)C#N)c3ccccc32)cc1 | 58.3 µM (inactive) | > 100 µM (inactive) | 7.67 µM (inactive) | 21.1 µM (inactive) | – | 45.6 µM (inactive) | 5.31 µM (inactive) | 26.3 µM (inactive) | > 100 µM (inactive) | > 100 µM (inactive) | > 100 µM (inactive) | – | > 100 µM (inactive) | > 100 µM (inactive) | > 100 µM (inactive) | > 100 µM (inactive) | > 100 µM (inactive) | > 100 µM (inactive) | > 100 µM (inactive)
COc1cc(-c2c3c(cc4c2OCO4)[C@@H](Nc2ccc(-c4ccc(-c5ccc(N[C@@H]6c7cc8c(cc7C(c7cc(OC)c(O)c(OC)c7)[C@H]7C(=O)OC[C@H]67)OCO8)cc5)cc4)cc2)[C@H]2COC(=O)[C@@H]2C3)cc(OC)c1O (stereo partly drawn) | 3.13 µM (inactive) | 3.13 µM (inactive) | – | 3.1 µM (inactive) | 4.13 µM (inactive) | 1.85 µM (inactive) | 1.69 µM (inactive) | 2.4 µM (inactive) | 1.61 µM (inactive) | 2.33 µM (inactive) | 5.13 µM (inactive) | 10.6 µM (inactive) | 3.22 µM (inactive) | 2.36 µM (inactive) | 2.65 µM (inactive) | 2.38 µM (inactive) | 2.84 µM (inactive) | – | 2.28 µM (inactive)
